The test system of assay [1] is Bacillus subtilis 168CA. Nature of the assay: Minimum Inhibitory Concentration (MIC) testing, broth microdilution, Bacillus subtilis. Type of assay: cell-based. The following applies: Bacillus subtilis 168CA; read-out: Bacillus subtilis MICs Activity. An outline of the steps: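 MICs were scored A (≦8 μg/ml), B (16–64 μg/ml) or C (>64 μg/ml), read as the lowest concentration preventing visible growth by eye and spectrophotometry. Plates incubated overnight (16–20 h) at 37 °C, inoculum OD 0.09 diluted 1:100 in 2× broth, per NCCLS guidelines.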

For assay [2], the system named is Staphylococcus aureus ATCC29213. Nature of the assay: Minimum Inhibitory Concentration (MIC) testing, broth microdilution, Staphylococcus aureus. Type of assay: cell-based. The conditions noted are these: Staphylococcus aureus ATCC29213; read-out: Staphylococcus aureus MICs Activity. The gist of the method:
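Broth microdilution per NCCLS M7-A5 in Mueller Hinton broth, with compound in 1.6% DMSO and inoculum at OD 0.09 diluted 1:100. Plates incubated 16–20 h at 37°C. MIC is the lowest concentration with no visible growth; scored A ≤8, B 16–64, C >64 μg/ml.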

Values after ≈ are worked out from the molar mass of the structure shown.

Consider `Cc1ccc2sc(COc3ccc(F)c(C(N)=O)c3F)nc2c1` [Example 148, 2,6-Difluoro-3-(5-methyl-benzothiazol-2-ylmethoxy)-benzamide], for which the MIC in assay [1] and in assay [2] was < 8 µg/mL throughout.
On to `COC(=O)c1sc(COc2ccc(F)c(C(N)=O)c2F)nc1-c1ccc(OC)cc1` [Example 313, 2-(3-Carbamoyl-2,4-difluoro-phenoxymethyl)-4-(4-methoxy-phenyl)-thiazole-5-carboxylic acid methyl ester], for which the MIC in assay [1] and in assay [2] was < 8 µg/mL each time.
As to `NC(=O)c1c(F)ccc(OCc2cccc(F)c2)c1F` [Example 101, 2,6-Difluoro-3-(3-fluoro-benzyloxy)-benzamide], the MIC in assay [1] and in assay [2] was 16 to 64 µg/mL (≈ 56.9 to 228 µM) each time.
As to `CCc1ccc(-c2noc(COc3ccc(F)c(C(N)=O)c3F)n2)cc1` [Example 250, 3-[3-(4-Ethylphenyl)-1,2,4-oxadiazol-5-yl]methoxy-2,6-difluorobenzenecarboxamide], the MIC in assay [1] and in assay [2] was < 8 µg/mL each time.
For `Cc1ccc(-c2nc(CCOc3ccc(F)c(C(N)=O)c3F)c(C)o2)cc1` [Example 333, 2,6-Difluoro-3-[2-(5-methyl-2-p-tolyl-oxazol-4-yl)-ethoxy]-benzamide], the MIC in assay [1] and in assay [2] was < 8 µg/mL in each case.
For the compound `CC/C=C\CCCCCOc1cccc(C(N)=O)c1` [Example 61, 3-[(Z)-6-Nonenyloxy]benzenecarboxamide], the MIC in assay [1] and in assay [2] was < 8 µg/mL each time.
`COC(=O)c1cccc(COc2ccc(F)c(C(N)=O)c2F)c1` [Example 108, 3-(3-Carbamoyl-2,4-difluoro-phenoxymethyl)-benzoic acid methyl ester]: the MIC in assay [1] and in assay [2] was 16 to 64 µg/mL (≈ 49.8 to 199 µM) each time.
As for `NC(=O)c1cccc(OCC(=O)OC2CCCCC2)c1` [Example 27, Cyclohexyl 2-[3-(aminocarbonyl)phenoxy]acetate], the MIC in assay [1] and in assay [2] was > 64 µg/mL in each case.
For `NC(=O)c1c(F)ccc(OCc2nc(-c3ccc(F)cc3)cs2)c1F` [Example 318, 2,6-Difluoro-3-[4-(4-fluoro-phenyl)-thiazol-2-ylmethoxy]-benzamide], the MIC in assay [1] and in assay [2] was < 8 µg/mL throughout.
As to `CCCC/C=C/CCOc1cccc(C(N)=O)c1` [Example 40, 3-[(E)-3-Octenyloxy]benzenecarboxamide], the MIC in assay [1] and in assay [2] was < 8 µg/mL throughout.
In the case of `CCCCCCOc1cc(F)cc(C(N)=O)c1` [Example 167, 3-Fluoro-5-hexyloxy benzamide], the MIC in assay [1] and in assay [2] was 16 to 64 µg/mL (≈ 66.9 to 267 µM) in each case.
Turning to `NC(=O)c1c(F)ccc(OCc2csc(-c3ccc(Cl)cc3)n2)c1F` [Example 306, 3-[2-(4-Chloro-phenyl)-thiazol-4-ylmethoxy]-2,6-difluoro-benzamide], the MIC in assay [1] and in assay [2] was < 8 µg/mL in each case.
Turning to `NC(=O)c1c(F)ccc(OCc2coc(-c3ccccc3)n2)c1F` [Example 132, 2,6-Difluoro-3-(2-phenyl-oxazol-4-ylmethoxy)-benzamide], the MIC in assay [1] and in assay [2] was < 8 µg/mL each time.
Turning to `CCCCCCCCCOc1ccc(Cl)c(C(N)=O)c1` [Example 68, 2-Chloro-5-(nonyloxy)benzenecarboxamide], the MIC in assay [1] and in assay [2] was < 8 µg/mL throughout.
For the compound `NC(=O)c1c(F)ccc(OCc2nc(-c3ccc(O)cc3)cs2)c1F` [Example 290, 2,6-Difluoro-3-[4-(4-hydroxy-phenyl)-thiazol-2-ylmethoxy]-benzamide], the MIC in assay [1] and in assay [2] was < 8 µg/mL each time.
For `NC(=O)c1cccc(OCc2nc3cc(Cl)ccc3s2)c1F` [Example 219, 3-[(5-Chloro-1,3-benzothiazol-2-yl)methoxy]-2-fluorobenzenecarboxamide], the MIC in assay [1] and in assay [2] was < 8 µg/mL throughout.
For `NC(=O)c1cccc(OCn2cccn2)c1` [Example 168, 3-(Pyrazol-1-ylmethoxy)-benzamide], the MIC in assay [1] and in assay [2] was > 64 µg/mL in each case.
For `NC(=O)c1c(F)ccc(OCc2nc3cc(F)ccc3s2)c1F` [Example 216, 2,6-Difluoro-3-[(5-fluoro-1,3-benzothiazol-2-yl)methoxy]benzenecarboxamide], the MIC in assay [1] and in assay [2] was < 8 µg/mL each time.
With `COc1ccc2ccc(COc3ccc(F)c(C(N)=O)c3F)nc2c1` [Example 98, 2,6-Difluoro-3-(7-methoxy-quinolin-2-ylmethoxy)-benzamide], the MIC in assay [1] and in assay [2] was < 8 µg/mL in each case.
`NC(=O)c1c(F)ccc(OCc2csc(-c3cccc(O)c3)n2)c1F` [Example 308, 2,6-Difluoro-3-[2-(3-hydroxy-phenyl)-thiazol-4-ylmethoxy]-benzamide]: the MIC was < 8 µg/mL in assay [1] and 16 to 64 µg/mL (≈ 44.2 to 177 µM) in assay [2].
In the same order, the values of `Cc1cccc(COc2ccc(F)c(C(N)=O)c2F)n1` [Example 197, 2,6-Difluoro-3-[(6-methyl-2-pyridinyl)methoxy]benzenecarboxamide] are 16 to 64 µg/mL (≈ 57.5 to 230 µM) and 16 to 64 µg/mL (≈ 57.5 to 230 µM).
In the case of `CC(C)c1ccc(-c2noc(COc3ccc(F)c(C(N)=O)c3F)n2)cc1` [Example 248, 2,6-Difluoro-3-[3-(4-isopropylphenyl)-1,2,4-oxadiazol-5-yl]methoxybenzenecarboxamide], the MIC in assay [1] and in assay [2] was < 8 µg/mL each time.
For `NC(=O)c1c(F)ccc(OCc2csc(Nc3ccccc3)n2)c1F` [Example 237, 3-[(2-Anilino-1,3-thiazol-4-yl)methoxy]-2,6-difluorobenzenecarboxamide], the MIC in assay [1] and in assay [2] was 16 to 64 µg/mL (≈ 44.3 to 177 µM) throughout.
As for `C=CCCCCOc1cccc(C(N)=O)c1` [Example 15, 3-(5-Hexenyloxy)benzenecarboxamide], the MIC in assay [1] and in assay [2] was 16 to 64 µg/mL (≈ 73 to 292 µM) in each case.
Take `NC(=O)c1c(F)ccc(OCc2cccc(-c3ccccc3)c2)c1F` [Example 102, 3-(Biphenyl-3-ylmethoxy)-2,6-difluoro-benzamide]: the MIC in assay [1] and in assay [2] was < 8 µg/mL in each case.
As for `NC(=O)c1c(F)ccc(OCc2nc(-c3ccc(Cl)cc3)no2)c1Cl` [Example 270, 2-Chloro-3-[3-(4-chloro-phenyl)-[1,2,4]oxadiazol-5-ylmethoxy]-6-fluoro-benzamide], the MIC in assay [1] and in assay [2] was < 8 µg/mL in each case.
`NC(=O)c1c(F)ccc(OCc2coc(-c3ccc(Cl)cc3)n2)c1F` [Example 294, 3-[2-(4-Chloro-phenyl)-oxazol-4-ylmethoxy]-2,6-difluoro-benzamide]: the MIC in assay [1] and in assay [2] was < 8 µg/mL each time.
Consider `NC(=O)c1c(F)ccc(OCc2cccs2)c1F` [Example 186, 2,6-Difluoro-3-(2-thienylmethoxy)benzenecarboxamide], for which the MIC in assay [1] is < 8 µg/mL; in assay [2], 16 to 64 µg/mL (≈ 59.4 to 238 µM).
For `Cc1cccc2ccc(COc3ccc(F)c(C(N)=O)c3F)nc12` [Example 146, 2,6-Difluoro-3-(8-methyl-quinolin-2-ylmethoxy)-benzamide], the figures for the MIC in assay [1] and in assay [2] were < 8 µg/mL and 16 to 64 µg/mL (≈ 48.7 to 195 µM), respectively.
Regarding `CC(C)(C)c1nc(CCCOc2cccc(C(N)=O)c2)c(C(F)(F)F)o1` [Example 57, 3-{3-[2-(tert-Butyl)-5-(trifluoromethyl)-1,3-oxazol-4-yl]propoxy}benzenecarboxamide], the values for the MIC in assay [1] and in assay [2] were < 8 µg/mL and 16 to 64 µg/mL (≈ 43.2 to 173 µM), respectively.
Taken in the same sequence, the figures for `NC(=O)c1c(F)ccc(OCc2nc(-c3cccs3)no2)c1F` [Example 153, 2,6-Difluoro-3-(3-thiophen-2-yl-[1,2,4]oxadiazol-5-ylmethoxy)-benzamide] were < 8 µg/mL and < 8 µg/mL.
Taken in the same sequence, the figures for `Cc1ccc(OCc2noc(COc3ccc(F)c(C(N)=O)c3F)n2)cc1` [Example 263, 2,6-Difluoro-3-(3-[(4-methylphenoxy)methyl]-1,2,4-oxadiazol-5-ylmethoxy)benzenecarboxamide] were < 8 µg/mL and 16 to 64 µg/mL (≈ 42.6 to 171 µM).
In the same order, the values of `COc1ccc(-c2nc(COc3ccc(F)c(C(N)=O)c3F)sc2-c2cccc(OC)c2)cc1` [Example 281, 2,6-Difluoro-3-[5-(3-methoxy-phenyl)-4-(4-methoxy-phenyl)-thiazol-2-ylmethoxy]-benzamide] are < 8 µg/mL and < 8 µg/mL.
Consider `COc1cccc(-c2ccc3sc(COc4ccc(F)c(C(N)=O)c4F)nc3c2)c1` [Example 143, 2,6-Difluoro-3-[5-(3-methoxy-phenyl)-benzothiazol-2-ylmethoxy]-benzamide], for which the MIC was > 64 µg/mL in assay [1] and < 8 µg/mL in assay [2].
Taken in the same sequence, the figures for `C=CCc1ccc2sc(COc3ccc(F)c(C(N)=O)c3F)nc2c1` [Example 126, 3-(5-Allyl-benzothiazol-2-ylmethoxy)-2,6-difluoro-benzamide] were < 8 µg/mL and < 8 µg/mL.
As for `NC(=O)c1c(F)ccc(OCc2nc(-c3ccc4c(c3)OCO4)no2)c1F` [Example 322, 3-(3-Benzo[1,3]dioxol-5-yl-[1,2,4]oxadiazol-5-ylmethoxy)-2,6-difluoro-benzamide], the MIC in assay [1] and in assay [2] was < 8 µg/mL each time.
For the compound `COc1ccc(-c2nc(COc3ccc(F)c(C(N)=O)c3F)sc2C#N)cc1` [Example 289, 3-[5-Cyano-4-(4-methoxy-phenyl)-thiazol-2-ylmethoxy]-2,6-difluoro-benzamide], the MIC in assay [1] and in assay [2] was < 8 µg/mL in each case.
As to `NC(=O)c1c(F)ccc(OCc2nc(CCc3ccccc3)cs2)c1F` [Example 122, 2,6-Difluoro-3-(4-phenethyl-thiazol-2-ylmethoxy)-benzamide], the MIC in assay [1] and in assay [2] was < 8 µg/mL throughout.

(Values after patent publication US8088791B2, “Antibacterial agents” (Biots Scientific Management Pty Ltd, priority 2006, dated 2012).)
